Reference: US8815935B2, “Inhibitors of protein prenyltransferases” (The Regents of the University of California, priority 2008, dated 2014)
Where two headings read alike, the source gives them in different places.

Experiments:
[1] = tested on: K562 cells; experiment: K562 cell growth inhibition; assay type: cell-based, human
Description: K562 cells are a cell line of human erythroleukemia cells. The K562 cells were treated with P3-E5, P5-H6 or GGTI-298 (a known GGTI compound illustrated in FIG. 27) for 72 hours and then cell number was counted using cell counting kit-8 (Dojindo, Gaithersburg, Md.). Cell viability relative to the DMSO control and the known GGTI compound is plotted in FIG. 23.
(§1) Cell viability was determined by Cell Counting Kit-8 (CCK-8, Dojindo, Kumamoto, Japan) as described previously (31). Cell viability was calculated relative to the DMSO control. Cell cycle profile was analyzed by flow cytometry as described previously (32).

[2] = tested on: Jurkat cells; experiment: Jurkat cell growth inhibition; assay type: cell-based, human
Description: In Table 4 in cell GI50 values for the growth inhibition of Jurkat cells are reported. The GI50 value is the concentration of a test compound needed to produce 50% growth inhibition in the cell type listed. In Table 4 the isolated yield of each synthetic step for the synthesis of corresponding compounds are also reported.
(§2) Panc-1 cells (Pancreatic cancer cell line) and Jurkat cells (T-cell leukemia) were treated with 12.5 μM of P5-H6 or 12.5 μM of mP5-H6a for 72 hours. The cell number was counted as described in Example 5.
as §1

[3] = biological target: T1, GGTase-I (Rattus norvegicus, UniProt P53610+Q04631); experiment: In vitro GGTase-I enzyme assay (IC50, kinetics); assay type: biochemical
T1 construct: purchased JENA BIOSCIENCE
Description: The GGTase-I assay was carried out using RhoA as a substrate protein, GGTase-I (JENA Bioscience) and [3H]geranylgeranyl pyrophosphate. Incubation was for 30 min at 37° C. GGTase-II (or RabGGTase) assay was carried out using YPTI as a substrate protein, GGTase-II (Calbiochem, San Diego, Calif.) plus REP1 (Calbiochem) and [3H]geranylgeranyl pyrophosphate. Incubation was for 30 min at 37° C. FIGS. 20D-20F show the three dimensional structure of GGTase I (D), FTsse (E) and GGTase II (F) which can be obtained from X-ray diffraction studies of protein crystals.
GGTase-I and FTase activities were determined by following the incorporation of radiolabeled isoprenoid [^3H]-geranylgeranyl or [^3H]-farnesyl into substrate proteins. FTase or GGTase-I (50 nM) were used to initiate reactions containing 0.4 μM of [^3H]-FPP or 0.5 μM of [^3H]-GGPP and 2 μM of MBP-tagged substrates (K-Ras4B for FTase; RhoA for GGTase-I) in 20 μl of buffer {50 mM Tris-HCl (pH 7.5), 10 mM MgCl2, […] and 5 mM DTT}. Inhibitors were added at the indicated concentrations. The final DMSO concentration was 2.5% for all samples.
Reactions were carried out for 10 min at 30° C. The reaction mixture was spotted onto a filter paper, treated with 10% trichloroacetic acid (TCA) followed by ethanol and acetone washing. The filter was counted using a scintillation counter. Kinetic assays in which the GGPP concentration was varied employed fixed concentrations of GGTase-I and RhoA, and reactions were carried out for 5 min. Similarly, fixed concentrations of GGTase-I and GGPP were used when the amount of RhoA was varied.

[4] = tested on: MCF10a; experiment: MCF10a cell growth inhibition; assay type: cell-based
From the text: (§3) In FIG. 9-24 in vitro IC50 values for the GGTase I activity are reported. In Tables 7-15 in cell GI50 values for the growth inhibition of a variety of cancer cell lines (e.g., Jurkat, K562, MDA-MB-231, BT474, MCF7, MiaPaCa2, Aspc-1, Panc-1, Capan-2, CFpac-1, and MCF10a) are reported.

[5] = tested on: MCF7; experiment: MCF7 cell growth inhibition; assay type: cell-based, human
Description: as §3, §1

[6] = tested on: MiaPaCa2; experiment: MiaPaCa2 cell growth inhibition; assay type: cell-based, human; conditions: Tables 8-15; no unit printed there; listed as P61C4
Description: as §3, §1

[7] = tested on: Capan-2; experiment: Capan-2 cell growth inhibition; assay type: cell-based, human; conditions: Tables 8-15; no unit printed there; listed as P61C4
Description: as §3, §1

[8] = tested on: Aspc-1; experiment: Aspc-1 cell growth inhibition; assay type: cell-based, human; conditions: Tables 8-15; no unit printed there; listed as P61C4
Description: as §3, §1

[9] = tested on: BT474; experiment: BT474 cell growth inhibition; assay type: cell-based, human; conditions: Tables 8-15; no unit printed there; listed as P61C4
Description: as §3, §1

[10] = tested on: Panc-1; experiment: Panc-1 cell growth inhibition; assay type: cell-based, human; conditions: Tables 8-15; no unit printed there; listed as P61C4
Description: as §3, §2, §1

[11] = Homo sapiens, Jurkat, Tables 4, 6, 7, read-out: Jurkat cell GI50
[12] = Tables 3, 5, 7, read-out: In vitro (enzyme assay) IC50, GGTase I
[13] = Homo sapiens, K562, Tables 8-15, no unit printed there
[14] = Homo sapiens, Jurkat, Tables 8-15, no unit printed there, read-out: Jurkat GI50
[15] = Tables 8-15, no unit printed there (Table 7 head: μM unless otherwise specified), read-out: In vitro (GGTase I IC50)
[16] = Homo sapiens, MCF-10A, Tables 8-15, no unit printed there
[17] = Homo sapiens, MCF7, Tables 8-15, no unit printed there
[18] = Tables 8-15, no unit printed there, listed as P61C4
[19] = Tables 4, 6, 7, read-out: Jurkat cell GI50
[20] = Tables 8-15, no unit printed there
[21] = Tables 8-15, no unit printed there, read-out: Jurkat GI50

Structure (SMILES)	GI50 [2, 11] [µM]	IC50 [3, 12] [µM]	GI50 [1, 13] [µM]	GI50 [2, 14] [µM]	IC50 [3, 15] [µM]	further results
Cc1ccccc1S(=O)(=O)N1[C@@H](c2ccc(Cl)cc2)C(C(N)=O)=C[C@H]1C(C)(C)C	11	1.6				GI50 ([1]; Homo sapiens, K562, Table 7): 4.8 µM
Cc1ccccc1S(=O)(=O)N1[C@@H](c2ccc(Cl)cc2)C(C(=O)NO)=C[C@H]1C(C)(C)C	4.02	1.3				GI50 ([1]; Homo sapiens, K562, Table 7): 10.3 µM; GI50 ([4]; Homo sapiens, MCF-10A, Table 7): 11.4 µM; GI50 ([5]; Homo sapiens, MCF7, Table 7): 2.52 µM
Cc1ccccc1S(=O)(=O)N1[C@@H](c2ccc(Cl)cc2)C(CO)=C[C@H]1C(C)(C)C	5.8	2.2				GI50 ([1]; Homo sapiens, K562, Table 7): 6 µM
CC(C)(C)[C@@H]1C=C(C(=O)O)[C@H](c2ccc(Cl)cc2)N1S(=O)(=O)c1c(Cl)cccc1Cl			8.26	2.76	4.4	
CC(C)(C)[C@@H]1C=C(C(=O)O)[C@H](c2ccc(Cl)cc2)N1S(=O)(=O)C(C)(C)C			> 20	5.36	28.9	
COC(=O)[C@H](Cc1ccccc1)NC(=O)COCC1=C[C@@H](C(C)(C)C)N(S(=O)(=O)c2ccccc2C)[C@H]1c1ccc(Cl)cc1			6.01	3.51	2.1	GI50 [4, 16]: 20 µM; GI50 [5, 17]: 6.78 µM
Cc1ccccc1S(=O)(=O)N1[C@@H](c2ccc(Cl)cc2)C(COCC(=O)N[C@@H](Cc2ccccc2)C(=O)O)=C[C@H]1C(C)(C)C			17	12	0.1	
Cc1ccccc1S(=O)(=O)N1[C@@H](c2ccc(Cl)cc2)C(COCC(=O)N[C@@H](Cc2ccccc2)C(N)=O)=C[C@H]1C(C)(C)C			5	1.3	0.7	
Cc1ccccc1S(=O)(=O)N1C(c2cccc(Cl)c2)C(CO)=CC[C@H]1c1ccc(Cl)cc1 (some centres unmarked)			5.8	7.5	> 100	
Cc1ccccc1S(=O)(=O)N1C(c2cccc(Cl)c2)C(C(=O)N[C@@H](CC(C)C)C(N)=O)=CC[C@H]1c1ccc(Cl)cc1 (some centres unmarked)			6.15	6.1		GI50 [4, 16]: > 20 µM; GI50 [5, 17]: 10.9 µM
CC(C)C[C@H](NC(=O)C1=CC[C@@H](c2cccc(Br)c2)N(S(=O)(=O)c2ccc(Cl)cc2)C1c1cccc(Cl)c1)C(N)=O (some centres unmarked)			7.06	3.15		GI50 [4, 16]: 14.2 µM; GI50 [5, 17]: 3.43 µM
COC(=O)[C@H](Cc1ccccc1)NC(=O)C1=C[C@@H](C(C)(C)C)N(S(=O)(=O)c2ccccc2C)[C@H]1c1ccc(Cl)cc1 [P61-A04]	19	> 50	14	19	> 50	
Cc1ccccc1S(=O)(=O)N1[C@@H](c2ccc(Cl)cc2)C(C(=O)N[C@@H](Cc2ccccc2)C(N)=O)=C[C@H]1C(C)CC(C)(C)C (some centres unmarked) [P61-C04]		> 50			> 50	GI50 [6]: 6.7 µM; GI50 [1, 18]: 5.95 µM; GI50 [4, 18]: 11.3 µM; GI50 [7]: 7.5 µM; GI50 [8]: 8.61 µM; GI50 [2, 19]: 6.4 µM; GI50 ([2]; Tables 8-15, no unit printed there, listed as P61C4, read-out: Jurkat GI50): 6.4 µM; GI50 [9]: 10.1 µM; GI50 [5, 18]: 4.71 µM; GI50 [10]: 8.6 µM
CC(C)C[C@H](NC(=O)C1=CC[C@@H](c2cccc(Cl)c2)N(S(=O)(=O)c2ccc(Br)cc2)C1c1cccc(Br)c1)C(N)=O (some centres unmarked) [P61-C09]		> 50			> 50	GI50 ([1]; Tables 8-15, no unit printed there, listed as P61C9): 12.9 µM; GI50 [2, 19]: 6.38 µM; GI50 ([2]; Tables 8-15, no unit printed there, listed as P61C9, read-out: Jurkat GI50): 6.38 µM
CC(C)C[C@H](NC(=O)C1=CC[C@@H](c2cccc(Cl)c2)N(S(=O)(=O)c2ccc(Br)cc2)C1c1cccc(Br)c1)C(N)=O (some centres unmarked) [P61-C10]						GI50 [1, 20]: 4.37 µM; GI50 [2, 19]: 2.22 µM; GI50 [2, 21]: 2.22 µM
CC(C)C[C@H](NC(=O)C1=CC[C@@H](c2cccc(Br)c2)N(S(=O)(=O)c2ccc(F)cc2)C1c1cccc(Cl)c1)C(N)=O (some centres unmarked) [P61-C11]	1.76	32.9	10.2	1.76	32.9	
NC(=O)[C@H](Cc1ccccc1)NC(=O)C1=CC[C@@H](c2cccc(Cl)c2)N(S(=O)(=O)c2ccc(Cl)cc2)C1c1cccc(Cl)c1 (some centres unmarked) [P61-D02]	1.96		4.33	1.96		IC50 ([3]; Tables 5, 14, read-out: In vitro (enzyme assay) IC50, GGTase I): 0.6 µM
CC(C)C[C@H](NC(=O)C1=CC[C@@H](c2cccc(Br)c2)N(S(=O)(=O)c2ccc(F)cc2)[C@H]1c1cccc(Cl)c1)C(N)=O [P61-D03]	0.32	6.9	1.7	0.32	6.9	
NC(=O)[C@H](Cc1ccccc1)NC(=O)C1=CC[C@@H](c2cccc(Br)c2)N(S(=O)(=O)c2ccc(Cl)cc2)C1c1cccc(Cl)c1 (some centres unmarked) [P61-D04]	4.86	1.3	7.69	4.86	1.3	
NC(=O)[C@H](Cc1ccccc1)NC(=O)C1=CC[C@@H](c2cccc(Br)c2)N(S(=O)(=O)c2ccc(Cl)cc2)C1c1cccc(Cl)c1 (some centres unmarked) [P61-D05]		> 20			> 20	GI50 ([1]; Tables 8-15, no unit printed there, listed as P61D5): 10.3 µM; GI50 [2, 19]: 3.57 µM; GI50 ([2]; Tables 8-15, no unit printed there, listed as P61D5, read-out: Jurkat GI50): 3.57 µM
CC(C)(C)[C@@H]1C=C(C(=O)N[C@@H](Cc2ccccc2)C(N)=O)[C@H](c2ccc(Cl)c(Cl)c2)N1S(=O)(=O)c1c(Cl)cccc1Cl [P61-D09]	4.91	> 50	3.63	4.91	> 50	
CC(C)(C)[C@@H]1C=C(C(=O)N[C@@H](Cc2ccccc2)C(N)=O)[C@H](c2ccc(Cl)c(Cl)c2)N1S(=O)(=O)c1c(Cl)cccc1Cl [P61-D10]						GI50 [1, 20]: 3.67 µM; GI50 [2, 19]: 5.28 µM; GI50 [2, 21]: 5.28 µM
CC(C)(C)[C@@H]1C=C(C(=O)N[C@@H](Cc2ccccc2)C(N)=O)[C@H](c2ccc(Cl)c(Cl)c2)N1S(=O)(=O)C(C)(C)C [P61-D11]	5.91	> 50	5.9	5.91	> 50	
CC(C)(C)[C@@H]1C=C(C(=O)N[C@@H](Cc2ccccc2)C(N)=O)[C@H](c2ccc(Cl)c(Cl)c2)N1S(=O)(=O)C(C)(C)C [P61-E02]		2.7			2.7	GI50 ([1]; Tables 8-15, no unit printed there, listed as P61E2): 4.22 µM; GI50 [2, 19]: 4.57 µM; GI50 ([2]; Tables 8-15, no unit printed there, listed as P61E2, read-out: Jurkat GI50): 4.57 µM
COC(=O)[C@H](Cc1ccccc1)NC(=O)C1=C[C@@H](C(C)(C)C)N(S(=O)(=O)c2ccccc2C)[C@H]1c1ccc(Cl)cc1 [P61A5]						GI50 [1, 20]: 17 µM; GI50 [2, 21]: 10.5 µM
Cc1ccccc1S(=O)(=O)N1[C@@H](c2ccc(Cl)cc2)C(C(=O)N[C@@H](Cc2ccccc2)C(=O)O)=C[C@H]1C(C)(C)C [drawing 152]			20	13	1.4	
Cc1ccccc1S(=O)(=O)N1C(c2cccc(Cl)c2)C(C(=O)N[C@@H](CC(C)C)C(N)=O)=CC[C@H]1c1ccc(Cl)cc1 (some centres unmarked) [drawing 214]						GI50 [4, 20]: > 20 µM; GI50 [2, 21]: 6.1 µM
